Experimental data reported in patent publication US8187586B2, “Methods of inducing apoptosis in hyperproliferative cells” (Case Western Reserve University, priority 2001, dated 2012).

How the values were obtained:
LNCaP cells = assay: Western blot of endogenous KChAP (899 antibody) after apoptotic stimulus; format: cell-based, human
From the text: (§1) Antibodies and Western Blotting Two antibodies were used to monitor intracellular levels of KChAP protein in control and Ad/KChAP infected cells. Antibody 899 was raised against a bacterial fusion protein which consisted of the C-terminal 169 amino acids of KChAP (Wible et al, 1998; Kuryshecv et al 2000). It recognizes both endogenous and overexpressed KChAP. Antibody 088 was raised against a peptide in the N-terminus of KChAP which is not present in PIAS3 (SPSPLASIPPTLLTPGTLL-GPKREVDMH, SEQ ID NO. 3). Antibody 088 recognizes only overexpressed, not endogenous, KChAP. Affinity purified antibodies were used in Western blotting. Other antibodies used for Western blotting to detect the following proteins were obtained from commercial sources: p53 (DO-1; Santa Cruz Biotech.), STAT1, STAT3, and cyclins A, B, and D3 (Transduction Labs), actin (clone AC-40, Sigma), phospho-p53 (ser 15) (Cell Signaling Tech. Inc.), PARP (we used two antibodies interchangeably which recognize both intact and cleaved PARP; one from Cell Signaling Inc., and one from Pharmingen), monoclonal Rb (Pharmingen), and p21 (WAF1 Ab1; Oncogene Res. Pdts).
(§2) Cells were lysed in a buffer consisting of 1% Triton-X 100, 150 mM NaCl, 50 mM Tris, 1 mM EDTA, pH 7.5 containing freshly added protease inhibitors (Complete, Roche Mol. Biol.) and the phosphatase inhibitors sodium fluoride (50 mM) and sodium orthovanadate (1 mM) for 30 minutes on ice. Insoluble debris was pelleted at 20,800×g for 10 minutes at 4° C. Lysate protein concentrations were determined by the BCA method (Pierce), and aliquots were boiled in a reducing SDS sample buffer to denature protein. SDS PAGE gels were blotted to PVDF membranes using a semi-dry blotting apparatus. Blots were blocked overnight in 5% milk (Bio-Rad) in PBS-T (PBS plus 0.1% Tween-20) at 4° C. Primary antibodies diluted in blocking buffer were incubated with the blots for one hour at room temperature (RT). Blots were washed with PBS-T and incubated with HRP (horseradish peroxidase)-conjugated secondary antibodies (Amersham Pharmacia) in blocking buffer for 1 hour at RT. Blots were developed with the ECL-Plus kit (Amersham Pharmacia).
(§3) We observed an increase in the amount of endogenous KChAP detected in cells exposed to STS. […] Multiple bands are detected in both cell lysates with the 899 antibody; a 68 kD doublet which is close to the predicted molecular weight of KChAP and PIAS3 and an upper band of about 85 kD. […] The signal then drops to control levels or lower after about 6 hours in LNCaP cells and around 4 to 6 hours in Jurkat cells. This peak in immunoreactivity largely precedes detection of PARP cleavage, a marker for apoptosis. […] There was no change in the 85 kD band. […]

Jurkat cells = assay: as above; format: cell-based; conditions: for signal of the 68 kD KChAP doublet (899 antibody): STS 1 μM
From the text: as §1, §2, §3

[1] = system: prostate cancer cells and breast cancer cells versus cardiomyocytes; assay: Sensitivity of cancer versus non-cancerous cells to KChAP overexpression; format: cell-based

Molecule: CC[C@@]1(O)C(=O)OCc2c1cc1n(c2=O)Cc2cc3ccccc3nc2-1 [camptothecin]
- pattern of KChAP immunoreactivity after apoptotic inducing drug (LNCaP cells; cell line not specified, data not shown): the same pattern was also obtained

Molecule: CN[C@@H]1C[C@H]2O[C@@](C)([C@@H]1OC)n1c3ccccc3c3c4c(c5c6ccccc6n2c5c31)C(=O)NC4 [staurosporine]
- KChAP content of Jurkat cells (Jurkat cells): greatly increases their KChAP content
- apoptosis in Jurkat cells (Jurkat cells): causes apoptosis
- signal of the 68 kD KChAP doublet (899 antibody) (Jurkat cells): immunoreactivity increases
- signal of the 68 kD KChAP doublet (899 antibody) (Jurkat cells; listed as STS): increased as early as one hour after the addition of STS
- signal of the 68 kD KChAP doublet (899 antibody) (LNCaP cells; LNCaP, STS 1 μM): immunoreactivity increases
- time after which KChAP signal drops to control levels or lower (LNCaP cells; LNCaP, STS 1 μM): about 6 hours
- signal of the 68 kD KChAP doublet (899 antibody) (LNCaP cells; LNCaP, STS 1 μM, listed as STS): increased as early as one hour after the addition of STS

B1: KChAP: potassium channel modulatory protein, human sequence SEQ ID NO:2, overexpressed in cells (protein, listed as Homo sapiens)
chain: MKIKELYRRRFPRKTLGPSDLSLLSLPPGTSPVGSPGPLAPIPPTLLAPGTLLGPKREVDMHPPLPQPVHPDVTMKPLPFYEVYGELIRPTTLASTSSQRFEEAHFTFALTPQQVQQILTSREVLPGAKCDYTIQVQLRFCLCETSCPQEDYFPPNLFVKVNGKLCPLPGYLPPTKNGAEPKRPSRPINITPLARLSATVPNTIVVNWSSEFGRNYSLSVYLVRQLTAGTLLQKLRAKGIRNPDHSRALIKEKLTADPDSEVATTSLRVSLMCPLGKMRLTVPCRALTCAHLQSFDAALYLQMNEKKPTWTCPVCDKKAPYESLIIDGLFMEILSSCSDCDEIQFMEDGSWCPMKPKKEASEVCPPPGYGLDGLQYSPVQGGDPSENKKKVEVIDLTIESSSDEEDLPPTKKHCSVTSAAIPALPGSKGVLTSGHQPSSVLRSPAMGTLGGDFLSSLPLHEYPPAFPLGADIQGLDLFSFLQTESQHYGPSVITSLDEQDALGHFFQYRGTPSHFLGPLAPTLGSSHCSATPAPPPGRVSSIVAPGGALREGHGGPLPSGPSLTGCRSDIISLD
- sensitivity of cancer cells relative to non-cancerous cells such as cardiomyocytes [1]: about ten times more sensitive
